Values of other authors, collected in US20120010144A1, “Peg-albumin composition having at least one protected thiol region as a platform for medications” (priority 2009, published 2012).

Conditions: soluble in water (hydrophilic) or in lipid (hydrophobic)

Molecule	Solubility
Cc1c(C)c2c(c(C)c1O)CC[C@@](C)(CCC[C@H](C)CCC[C@H](C)CCCC(C)C)O2 [A-Tocopherol]	Lipid
COc1c(O)c(C)c(C/C=C(\C)CC/C=C(\C)CC/C=C(\C)CC/C=C(\C)CC/C=C(\C)CC/C=C(\C)CC/C=C(\C)CC/C=C(\C)CC/C=C(\C)CCC=C(C)C)c(O)c1OC [Ubiquinol]	Lipid
Carotenes	Lipid

Now from value to molecule:

Solubility	Molecule
Water	N[C@@H](CCC(=O)N[C@@H](CS)C(=O)NCC(=O)O)C(=O)O [Glutathione]
Water	O=c1[nH]c(=O)c2[nH]c(=O)[nH]c2[nH]1 [Uric Acid]
